This is an account of results in patent publication US20070244076A1, “Site and Rate Selective Prodrug Formulations of D609 with Antioxidant and Anticancer Activity” (priority 2003, published 2007).

Series [1] has as its system Mouse splenic lymphocytes. Description: IFNγ production of ConA-stimulated lymphocytes, ELISA. It counts as cell-based. As for the experimental part: Studies were conducted to determine whether D609 enhances mouse splenic lymphocyte mitogenic responses and IFNγ production. Mouse splenic lymphocytes at 2.5×10^6/ml were stimulated with LPS or ConA in the presence or absence of D609. The cell proliferation was measure by 3H-thymidine incorporation after the cells were cultured with LPS (FIG. 8A) or with ConA (FIG. 8B). […] In addition, the supernatants of ConA-stimulated lymphocyte cultures were harvested at various times and measured for IFNγ production by ELISA (FIG. 8C).
For orientation: ELISA stands for enzyme-linked immunosorbent assay.

The subject of series [2] is lymphocytes. Description: IR-induced oxidative events in lymphocytes. The settings on record: pre-incubation of lymphocytes. It counts as cell-based.
The nature of series [3]: Cyclic voltammetry, reducing power (E1/2) at physiological pH. It counts as physicochemical. The settings on record: 2 mM in PBS (pH 7.4). On the procedure: D609 was dissolved in PBS (pH 7.4) at 2 mM concentration, and E1/2 was measured using a cyclic voltammetry apparatus (Model CV-2, from BAS, West Lafayette, 1N).
In series [4] the test system is U937 cells. Description: U937 apoptosis, sub-G0/1 cells by flow cytometry. It counts as cell-based, Human. The settings on record: 177 μM, 24 h. As for the experimental part: Apoptosis Assays: U937 cells (5×10^5/ml) were cultured with vehicle (0.5% DMSO) or 177 μM D609 or prodrug 2. After 24 h incubation, the cells were harvested, washed and then fixed in 70% ethanol at 4° C. for 24 h. They were stained with a PI staining solution (PBS containing PI 50 μg/ml; RNase A 100 U/ml; and 0.1 mM EDTA) for 2 h at room temperature before flow cytometric analysis (10,000 events/sample). The percentage of apoptotic cells was determined by quantification of the sub-G0/1 population using a FACS Caliber (Becton Dickinson, San Jose, Calif.).
(A flow cytometer gives signals particle by particle.)

Series [5] has as its system various tumor cells. In words: IR-induced apoptosis of tumor cells. It counts as cell-based.
Series [6] addresses phospholipase C (Type XI from B. cereus) (Bacillus cereus, UniProt P09598). It counts as biochemical. The settings on record: 2 hrs at 37° C., pNPP 40 mM. On the procedure:
(§1) In this study, p-nitrophenyl-phosphorylcholine (pNPP, 40 mM) was incubated with 2 U/ml phospholipase C (Type XI from B. cereus) in the presence or absence of various concentrations of inhibitors for 2 hrs at 37° C. The amount of the cleaved substrate pNPP was quantified by determination of the optical density at 410 nm using an ELISA reader. The results are expressed as percent of vehicle control and presented as means±SEM (n=3) (FIG. 9A). NBD-C6-ceramide and PC were incubated with U937 cell lysates containing 50 μg protein in the presence or absence of various concentrations of inhibitors for 30 min at 30° C. The formation of NBD-C6-sphingomyelin as analyzed by TLC and quantified by determination of the fluorescent intensity of NBD-C6-sphingomyelin using a phosphorimager. The results are expressed as percent of vehicle control (FIG. 9B). U937 cells were incubated with different concentrations of inhibitors for 48 hours.

Series [7] concerns BALB/c mice. Description: Protection of mice from IR-induced lethality. The settings on record: 50 mg/kg iv 10 min prior to 6.5 or 8.5 Gy total body IR; 30-day observation. It counts as in vivo. As for the experimental part: BALB/c mice were exposed to 6.5 or 8.5 Gy total body IR 10 minutes after they received a single dose (50 mg/kg) of iv injection of D609 or vehicle (saline) through the tail vein. The death of these mice was recorded during a 30-day observation period after IR.
Moreover, when D609 (50 mg/kg, iv) was administered to mice 10 min prior to total body

Series [8] has as its system ceramide and DAG levels in U937 cells. Description: Ceramide and DAG levels in U937 cells by DAG kinase assay. It counts as cell-based, Human. The settings on record: 2 hrs. As for the experimental part: To validate if inhibition of SMS may mediate D609-induced tumor cell death, the cellular level of SMS activity in U937 cells treated with vehicle or D609 were studied. […] NBD-C6-ceramide and PC were incubated with the cell lysates containing 50 μg proteins for 30 min at 30° C. The formation of NBD-C6-sphingomyelin was analyzed by TLC and quantified by determination of the fluorescent intensity of NBD-C6-sphingomyelin using a phosphoimager. The results, shown in FIGS. 10B-10D, are expressed as percent of the control cultures with vehicle and presented as means±SEM (n=3). […] The levels of ceramide (FIG. 10B) and DAG (FIG. 10C) were analyzed by the DAG kinase assay, normalized to the levels of cellular phospholipid and expressed as pmole/nmole phophate (pi) or the ratio of ceramide and DAG (FIG. 10D). The results represent means±SEM (n=3).

The subject of series [9] is A20 cells. Description: MTT cell viability and growth, A20 cells.
Experimental: The cell viability was analyzed by MTT assay after A20 cells were cultured with vehicle or different concentrations of D609 for 48 hrs. […] A20 cells were untreated (Control), irradiated (IR 4 Gy), incubated with D609 alone, or treated with both D609 and IR. The cell viability and/or proliferation were measured by MTT assay at different times after the cells were placed into well of 96-well plate (2×10^4/0.2 ml/well). The results are expressed as means±SEM (n=3) (FIG. 13B).
Series [10] has as its system sphingomyelin synthase (SMS). In words: SMS activity in U937 cell lysates with inhibitor added (cell lysate-based in vitro assay). It counts as biochemical, Human. The settings on record: 30 min at 30° C. On the procedure:
as §1

The conditions of series [11]: rat, plasma.
Experimental: At various times of the incubation, the hydrolysis of prodrug 2 was monitored by HPLC analysis, and the release of D609 was determined by measuring the colorimetric reaction of D609 with DTNB (3 mM). The data are presented as mean±SE of three independent assays.
After incubation at 37° C., aliquots (100 μl) of the plasma were removed at various times and immediately mixed with an equal volume of DTNB in acetonitrile (3 mM DTNB). Acetonitrile was used to quickly inactivate plasma esterases and to precipitate plasma proteins. After removal of the precipitated plasma proteins by centrifugation, the concentrations of the D609 prodrug and D609 in the clear plasma supernatants were determined by HPLC and DTNB assays, respectively, as described above.
The subject of series [12] is Porcine liver esterase (PLE). Description: Esterase-catalyzed hydrolysis of D609 prodrugs. It counts as in vitro ADME. As for the experimental part: FIG. 18A, FIG. 18B, FIG. 18C: Esterase-catalyzed hydrolysis of D609 prodrugs. Prodrugs (300 μM in 15% DMSO/PBS, pH 7.4), 1 (FIG. 18A), 2 (FIG. 18B) and 3 (FIG. 18C), were incubated at 37° C. in the presence of 0.1 unit/ml PLE. […] The data are presented as the mean±SEM of three independent assays.
To determine the hydrolytic property of D609 prodrugs 1, 2, and 3 (300 μM in 15% DMSO/PBS, pH7.4), these prodrugs were incubated with 0.1 unit/ml PLE at 37° C. After various times during incubation, the rate of hydrolysis of these D609 prodrugs was monitored by HPLC analysis. […] The concentration of D609 (μM) was calculated based on a linear D609-DTNB standard curve. The pseudo-first-order plots for the hydrolysis of these prodrugs were constructed from the logarithm of remaining ester versus time (FIG. 18). The end points of the reaction (150 min) were defined as when the hydrolysis of these prodrugs was over 99% complete and the release of D609 reached plateau. The pseudo-first-order rate constant (Kobs) and T1/2 (=0.693/Kobs) were calculated based on the slope of the linear portion of the curve for each of these prodrugs and are presented in Table 1 (Gilmer et al., 2002).

Setting [13] is: 300 μM, 0.1 unit/ml PLE, 37° C., pH 7.4.

Molecules are shown by their SMILES. Several values for one entry are separate records, joined by “and”; a condition that tells them apart may be missing. Equal values may be shown once.

Sequence of phospholipase C (Type XI from B. cereus) (P09598 39-283 limits assumed): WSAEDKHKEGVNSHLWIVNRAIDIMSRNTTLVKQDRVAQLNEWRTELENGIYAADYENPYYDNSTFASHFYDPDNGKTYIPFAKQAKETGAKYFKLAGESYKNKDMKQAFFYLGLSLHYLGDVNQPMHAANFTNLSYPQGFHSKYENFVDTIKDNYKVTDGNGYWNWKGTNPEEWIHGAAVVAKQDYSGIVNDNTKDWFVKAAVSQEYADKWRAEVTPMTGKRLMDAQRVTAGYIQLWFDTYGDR

On to `S=C([S-])OC1CC2CC1C1CCCC21.[K+]` (stereo not drawn) [Prodrug D609, Tricyclodecan-9-yl-xanthogenate], for which, in series [1], the “production of interferon-γ (IFNγ)” value was “significantly augmented”. The “IR-induced events (ROS production, decrease in GSH, oxidative damage to proteins and lipids, NF-κB activation)” value in [2] is “significant diminution”. Moreover, the E1/2 in series [3] is on record as 350 mV. Moreover, in [4], the “apoptosis (sub-G0/1 cells)” value was “capable of inducing apoptosis”. Besides, in [5], the “protection of tumor cells from IR-induced apoptosis” value is recorded as “failed to protect them from IR-induced apoptosis”. Moreover, the “inhibition of PC-PLC activity” value in [6] is given as “dose-dependently inhibited”. The “protection from IR-induced lethality” value in series [7] is on record as “protected the mice from IR-induced lethality”. Also, in series [8], the “level of DAG” value is “decrease in that of DAG”; the level of ceramide entry is on record as “increase in the level of ceramide”; the “ratio between ceramide and DAG” value is reported as “dramatically elevated”. Besides, in series [9] (48 hrs), the LD50 entry was “about 106 μM and ~28.2 μg/ml”. For the same compound, the “response of A20 cells to IR” value in [9] (IR 4 Gy) is recorded as “enhanced their response to IR”. Besides, the “inhibition of SMS activity” value in series [10] is reported as “inhibited the SMS activity in a dose-dependent manner”.
In the case of `CCCC(=O)OCSC(=S)OC1CC2CC1C1CCCC21` (stereo not drawn) [Prodrug 2, S-methyleneoxybutyryl D609], the T1/2 in [11] was found to be 0.126 min; in series [12] (setting [13]) it was 10.61 min. The “apoptosis (sub-G0/1 cells)” value in series [4] is “significantly greater reduction in cell viability and increase in the sub-G0/1 cells than D609-treated cells”. For the same compound, in series [12] (setting [13]), the kobs turned out to be 0.06532 min⁻¹. The “% D609 (molar recovery of D609)” value in [12] (complete hydrolysis by esterase) came to 93%.
